This note sets out measurements from paper PMC8000592, “Discovery and Optimization of Selective Inhibitors of Meprin α (Part I)” (Pharmaceuticals, 2021).

SMILES strings stand for the structures. Where two headings read alike, the source gives them in different places.

Test [1] addresses T1, meprin β (Homo sapiens, UniProt Q16820).
T1 sequence (Q16820 62-594 limits assumed): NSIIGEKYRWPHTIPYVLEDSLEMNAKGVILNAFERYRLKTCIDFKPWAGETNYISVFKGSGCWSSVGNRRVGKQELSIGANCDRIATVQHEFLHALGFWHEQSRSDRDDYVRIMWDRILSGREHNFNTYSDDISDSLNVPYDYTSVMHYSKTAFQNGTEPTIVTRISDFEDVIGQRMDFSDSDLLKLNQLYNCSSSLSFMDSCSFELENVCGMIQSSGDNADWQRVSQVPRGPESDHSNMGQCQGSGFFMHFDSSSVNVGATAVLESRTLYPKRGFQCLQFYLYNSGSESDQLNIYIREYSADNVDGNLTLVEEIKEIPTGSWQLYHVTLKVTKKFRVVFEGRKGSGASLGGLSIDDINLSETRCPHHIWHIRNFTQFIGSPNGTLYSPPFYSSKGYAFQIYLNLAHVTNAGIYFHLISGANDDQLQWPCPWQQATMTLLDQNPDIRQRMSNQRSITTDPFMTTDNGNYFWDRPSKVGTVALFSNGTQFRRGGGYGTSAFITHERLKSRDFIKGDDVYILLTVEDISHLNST
Nature of the test: Meprin β assay, fluorogenic substrate (Mca)-EDEDED-(K-ε-Dnp), 384 and 1536 well plate formats. The format is biochemical. The source says:
The meprin α and meprin β assays, which utilize the substrates (Mca)-YVADAPK-(K-ε-Dnp) and (Mca)-EDEDED-(K-ε-Dnp), respectively, have been described previously. To enable an ultra-high-throughput screening (uHTS) campaign, we proceeded to miniaturize both assays to 1536 well plate format (wpf). First, we recapitulated the assays in 1536 well plate using reagents at the same concentrations as in 384 well plate format assays by scaling the volume down by the factor of 2.5.
Both assays followed the same general protocol. A 5 µL measure of 2 × enzyme solution (2.6 and 0.1 nM for meprin α and meprin β, respectively) in assay buffer (50 mM Hepes, 0.01% Brij-35, pH 7.5) was added to solid bottom black 384 low volume plates (Nunc, cat# 264705). Next, 75 nL of test compounds or pharmacological control (actinonin or NFF449) were added to corresponding wells using a 384-pin tool device (V&P Scientific, San Diego, CA, USA). After 30 min incubation at RT, the reactions were started by addition of 5 µL of 2 × solutions of substrates (20 µM, mepin α substrate Mca-YVADAPK-K(Dnp) or meprin β substrate Mca-EDEDED-K(Dnp)). Reactions were incubated at RT for 1 h, after which the fluorescence was measured using the Synergy H4 multimode microplate reader (Biotek Instruments) (λexcitation = 324 nm, λemission = 390 nm).
Both assays followed the same general protocol. A 2 µL portion of 2 × enzyme solution (1.3 and 0.0125 nM for meprin α and meprin β, respectively) in assay buffer (50 mM Hepes, 0.01% Brij-35, pH 7.5) was added to solid bottom black 1536 low volume plates (Corning cat# 7261). Next, 30 nL of test compounds or pharmacological control (actinonin or NFF449) was added to corresponding wells using a 1536 pin tool device (V&P Scientific, San Diego). After 30 min incubation at RT, the reactions were started by addition of 2 µL of 2x solutions of substrates (20 µM, meprin α substrate Mca-YVADAPK-K(Dnp) or meprin β substrate Mca-EDEDED-K(Dnp)). Reactions were incubated at RT for 1 h, after which the fluorescence was measured using the Viewlux multimode microplate reader (Perkin Elmer) (λexcitation = 324 nm, λemission = 390 nm).
The miniaturized 1536-well plate format meprin α and meprin β assays were used to screen a collection of approximately 650,000 compounds (The Scripps Research library, La Jolla, CA, USA) on the automated Kalypsys/GNF platform at The Scripps Research Molecular Screening Center (SRMSC, Jupiter, FL, USA: http://hts.florida.scripps.edu/). Both uHTS campaigns were run separately but in a similar manner. Briefly, the first step was the primary screen of all test compounds as singlicates against the meprin α and meprin β target at a final concentration of 7.0 μM. Next, compounds selected as primary hits were cherry-picked and retested in triplicate against the primary screen target and its antitarget (meprin α for the meprin β screening effort, and vice versa) at a same final concentration of 7.0 μM. The additional counter screen assays against related metzincins (MMP-8, MMP-14, and ADAM10) were performed in triplicate at a final concentration of 7.0 μM. The final step was the titration of selected hits as 10-point, 1:3 serial dilutions in both the target and antitarget assay, starting at a final nominal concentration of 17 μM. […] Wells treated with DMSO only were used as negative controls and 0% inhibition reference. […] All data generated during this effort were uploaded to the SRMSC’s institutional screening database (Assay Explorer, Symyx). Sample to background (S/B) ratios, as well as Z and Z’ values, were calculated on a per plate basis as described 14. Curve fitting and resulting IC50 determinations were performed as previously reported.

Test [2] deals with T2, ADAM17 (Homo sapiens, UniProt P78536).
T2 construct: purchased R&D Systems 930-ADB
T2 sequence (P78536 215-824): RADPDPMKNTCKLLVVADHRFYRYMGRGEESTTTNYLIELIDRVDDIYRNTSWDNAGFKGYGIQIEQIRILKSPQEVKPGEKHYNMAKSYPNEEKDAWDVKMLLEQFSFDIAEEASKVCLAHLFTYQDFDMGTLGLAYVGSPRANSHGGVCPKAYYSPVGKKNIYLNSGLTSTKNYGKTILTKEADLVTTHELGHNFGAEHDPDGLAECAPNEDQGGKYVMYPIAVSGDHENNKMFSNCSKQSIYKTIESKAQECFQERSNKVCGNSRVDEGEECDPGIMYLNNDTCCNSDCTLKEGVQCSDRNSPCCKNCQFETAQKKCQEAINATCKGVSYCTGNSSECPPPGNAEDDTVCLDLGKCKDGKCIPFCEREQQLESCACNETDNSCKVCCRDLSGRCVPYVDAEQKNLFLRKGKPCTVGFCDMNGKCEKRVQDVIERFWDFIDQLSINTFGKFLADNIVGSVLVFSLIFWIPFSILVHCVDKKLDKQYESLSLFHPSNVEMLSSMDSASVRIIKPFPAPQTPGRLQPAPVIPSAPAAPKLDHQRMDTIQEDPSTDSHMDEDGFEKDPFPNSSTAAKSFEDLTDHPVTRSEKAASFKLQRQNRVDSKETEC
Nature of the test: ADAM17 assay (Mca-KPLGL-Dpa-AR-NH2 substrate). Conditions: triplicate, 10-point, 3:1 serial dilution, highest concentration 17.4 µM. Type of test: biochemical. Here is the method:
We were able to procure 64 out of 87 selected compounds from commercial sources, which we tested in triplicate, 10-point, 3:1 serial dilution concentration response format starting at the highest concentration of 17.4 µM against both meprin α and meprin β. In addition to meprins, we also tested 64 hits against related metzincins (MMP-2, MMP-3, MMP-8, MMP-9, MMP-10, MMP-14, ADAM10, and ADAM17) to ascertain general nonpromiscuity against zinc-dependent proteases.
Both assays followed the same general protocol. A 2.5 µL portion of 2 × enzyme solution (20 nM) in assay buffer (10 mM HEPES, 0.001% Brij-35, pH 7.5) was added to solid bottom black 1536 plates (Greiner, cat# 789075). Next, test compounds and pharmacological controls were added to corresponding wells using a 1536 pin tool device (V&P Scientific, San Diego, CA, USA). After 30 min incubation at RT, the reactions were started by addition of 2.5 µL of 2x solutions of substrate (R&D Systems cat#: ES010, Mca-KPLGL-Dpa-AR-NH2, 20 µM). Reactions were incubated at RT for 2 h, after which the fluorescence was measured using a PerkinElmer Viewlux multimode microplate imager (λexcitation = 324 nm, λemission = 390 nm). Final concentration of test compounds in assays was 7.0 µM.

The mark [3] stands for this setting: triplicate, 10-point, 3:1 serial dilution, highest concentration 17.4 µM, read-out: Meprin β IC50.

On to `O=C(CSc1nnc(NC(=O)c2ccccc2)s1)NO` [Compound 19847], for which the IC50 in test [1] (setting [3]) was 1430 nM; in test [2], above 17000 nM.
Regarding `O=C(CSc1nnc(NC(=O)COc2ccccc2)s1)NO` [Compound 19848], the IC50 was 385 nM in test [1] (setting [3]) and above 17000 nM in test [2].
As for `COc1cc(OC)cc(C(=O)CNc2nnc(SCC(=O)NO)s2)c1` [Compound 19849], the IC50 in test [1] (setting [3]) worked out at 287 nM; in test [2], 8010 nM.
Taken in the same sequence, the figures for `COc1ccc(-n2c(CSc3ncccn3)nnc2SCC(=O)NO)cc1` [Compound 19855] were above 17000 nM and above 17000 nM.
`O=C(CCN(Cc1cccs1)S(=O)(=O)c1ccc([N+](=O)[O-])cc1)NO` [Compound 162799]: the IC50 in test [1] (setting [3]) and in test [2] was above 17000 nM throughout.
In the case of `O=C(CCN(Cc1ccccc1)S(=O)(=O)c1ccc(F)cc1)NO` [Compound 162808], the IC50 in test [1] (setting [3]) and in test [2] was above 17000 nM each time.
With `O=C(COc1ccc(Cl)cc1Cl)NO` [Compound 1596857], the IC50 in test [1] and in test [2] was above 17000 nM each time.
Turning to `O=C(Nc1cc(C(=O)Nc2ccc(S(=O)(=O)O)cc2S(=O)(=O)O)cc(C(=O)Nc2ccc(S(=O)(=O)O)cc2S(=O)(=O)O)c1)Nc1cc(C(=O)Nc2ccc(S(=O)(=O)O)cc2S(=O)(=O)O)cc(C(=O)Nc2ccc(S(=O)(=O)O)cc2S(=O)(=O)O)c1` [NFF449], the increased apparent potency in test [1] (2.5 µM substrate condition) came to 3 fold. In addition, the IC50 was found to be 10 nM in test [1] (1536 wpf, 0.0125 nM enzyme, substrate 2.5uM, time 30 min, read-out: NF449 IC50); 11 nM in test [1] (1536 wpf, 0.0125 nM enzyme, substrate 2.5uM, time 60 min, read-out: NF449 IC50); 17 nM in test [1] (1536 wpf, 0.0125 nM enzyme, substrate 5uM, time 30 min, read-out: NF449 IC50); 20 nM in test [1] (1536 wpf, 0.0125 nM enzyme, substrate 5uM, time 60 min, read-out: NF449 IC50); 22 nM in test [1] (1536 wpf, 0.0125 nM enzyme, substrate 5uM, time 90 min, read-out: NF449 IC50); 34 nM in test [1] (1536 wpf, 0.0125 nM enzyme, substrate 10uM, time 30 min, read-out: NF449 IC50). Moreover, the IC50 came out at 32 nM in test [1] (1536 wpf, 0.0125 nM enzyme, substrate 10uM, time 60 min, read-out: NF449 IC50); 34 nM in test [1] (1536 wpf, 0.0125 nM enzyme, substrate 10uM, time 90 min, read-out: NF449 IC50); 25.2 nM in test [1] (1536 wpf, enzyme 0.0125nM, time 30 min, read-out: NF449 IC50); 30.4 nM in test [1] (1536 wpf, enzyme 0.0125nM, time 60 min, read-out: NF449 IC50); 33.9 nM in test [1] (1536 wpf, enzyme 0.0125nM, time 90 min, read-out: NF449 IC50); 31 nM in test [1] (1536 wpf, enzyme 0.025nM, time 30 min, read-out: NF449 IC50). Also, the IC50 came out at 36.2 nM in test [1] (1536 wpf, enzyme 0.025nM, time 60 min, read-out: NF449 IC50); 39.2 nM in test [1] (1536 wpf, enzyme 0.025nM, time 90 min, read-out: NF449 IC50); 29.6 nM in test [1] (1536 wpf, enzyme 0.05nM, time 30 min, read-out: NF449 IC50); 34.6 nM in test [1] (1536 wpf, enzyme 0.05nM, time 60 min, read-out: NF449 IC50); 39.4 nM in test [1] (1536 wpf, enzyme 0.05nM, time 90 min, read-out: NF449 IC50); 53 nM in test [1] (Meprin β 384 wpf, read-out: IC50). Besides, the IC50 in test [1] (Meprin β 1536 wpf, read-out: IC50) is 48 nM; in test [1] (control compound in primary HTS campaign, n = 11 plates, read-out: IC50) it was 10.4 ± 0.85 nM.
As to `O=[N+]([O-])c1ccc(CN2CCC3(CCc4ccccc43)CC2)o1` [SR207820], the figures for the IC50 in test [1] (setting [3]) and in test [2] were 1500 nM and above 17000 nM, respectively.
For `O=C(c1ccc(C(=O)O)c([N+](=O)[O-])c1)c1ccc(C(=O)O)c([N+](=O)[O-])c1` [SR355996] the same measures were 970 nM and above 17000 nM.
As for `CSc1nnc2c(n1)OC(c1ccc([N+](=O)[O-])o1)Nc1ccccc1-2` (centres unmarked) [SR412882], the values for the IC50 in test [1] (setting [3]) and in test [2] were 3500 nM and 17000 nM, respectively.
